Assay results from ChEMBL document CHEMBL4627248, “Emerging small-molecule therapeutic approaches for amyotrophic lateral sclerosis and frontotemporal dementia” (Bioorg Med Chem Lett, 2020).
pIC50, pKd: −log10 of the molar value.

What follows are compounds tested against T1, TAR DNA-binding protein 43 (Homo sapiens, UniProt Q13148) (assay: Binding affinity to TDP-43 (unknown origin)).
T1 sequence (Q13148 whole entry): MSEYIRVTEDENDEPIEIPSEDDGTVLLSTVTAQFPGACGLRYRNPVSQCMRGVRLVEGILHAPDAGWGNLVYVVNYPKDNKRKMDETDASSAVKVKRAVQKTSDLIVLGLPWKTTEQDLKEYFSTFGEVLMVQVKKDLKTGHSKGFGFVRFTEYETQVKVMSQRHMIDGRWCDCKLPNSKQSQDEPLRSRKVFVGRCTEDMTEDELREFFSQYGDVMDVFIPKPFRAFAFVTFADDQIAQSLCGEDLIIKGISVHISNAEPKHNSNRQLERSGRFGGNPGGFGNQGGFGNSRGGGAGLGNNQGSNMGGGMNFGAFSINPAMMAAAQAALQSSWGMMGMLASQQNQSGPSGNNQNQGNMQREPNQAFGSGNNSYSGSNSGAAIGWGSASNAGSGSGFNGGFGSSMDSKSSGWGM

SMILES | pKd
NC(=O)c1cncc(N2CCCC(CO)(Cc3ccc(F)cc3)C2)n1 (stereo not given) | 4.05

The compounds below were run against T1, TAR DNA-binding protein 43 (assay: Inhibition of TDP-43 (unknown origin) binding to RNA).

SMILES | pIC50
O=C1c2c(O)ccc(O)c2C(=O)c2c(NCCNCCO)ccc(NCCNCCO)c21 [MITOXANTRONE] | 5.00
CCc1cccc(C)c1NS(=O)(=O)c1cnccc1C(=O)N1CCCC1 | < 7.00
COc1cc(NC(=O)CCC2CCCN(Cc3ccc(F)c(OC)c3)C2)cc(OC)c1 (stereo not given) | 7.00
NC(=O)CCCCC1CCSS1 (racemic) [THIOCTIC ACID AMIDE] | 4.70
O=C(O)CCCC[C@@H]1CCSS1 [THIOCTIC ACID] | 4.70

These compounds were tested against (G4C2)8 hairpin RNA (assay: Binding affinity to (G4C2)8 hairpin RNA (unknown origin) by TO-PRO-1 dye displacement assay).

SMILES | pKd
CCN(CC)CCNC(=O)c1cc2cc(NC(=O)c3cc4cc(N)ccc4[nH]3)ccc2[nH]1 | 4.80
CCN(CC)CC[n+]1ccc2c(C)c3[nH]c4ccc(O)cc4c3c(C)c2c1 | 5.85
N=C(N)c1ccc(Nc2ccc(-c3cc4ccc(C(=N)N)cc4[nH]3)cc2)cc1 | 5.00
Cc1c2cc[n+](C)cc2c(C)c2c1[nH]c1ccc(O)cc12 | 6.05
